Consider ten substances from the OligoGym collection.

HELM strings list units from the 5' end as sugar, base in round brackets, then linkage (d deoxyribose, r ribose, m 2'-O-methyl, p phosphodiester). Strings are as the collection lists them; they lack the last nucleoside at the 3' end of the tested compound. [moe] = 2'-O-(2-methoxyethyl) (MOE); [sp] = phosphorothioate linkage; [m5C] = 5-methylcytosine

This series has as its target GFAP. In words: mouse, dose not given. The note with it: ASO.
For the substance “RNA1{[moe](T)[sp].[moe](G)p.[moe](G)p.[moe]([m5C])p.[moe](A)[sp].d(G)[sp].d(T)[sp].d(A)[sp].d(T)[sp].d(T)[sp].d(A)[sp].d([m5C])[sp].d([m5C])[sp].d(T)[sp].d([m5C])[sp].[moe](T)p.[moe](A)p.[moe]([m5C])[sp].[moe](T)}$$$$ (last 3' nucleoside missing)”, the 3 h FOB score came to 1 score 0-7.

For the substance “RNA1{[moe](T)[sp].[moe](G)p.[moe](G)p.[moe]([m5C])p.[moe](A)p.[moe](G)p.d(T)[sp].d(A)[sp].d(T)[sp].d(T)[sp].d(A)[sp].d([m5C])[sp].d([m5C])[sp].d(T)[sp].d([m5C])[sp].d(T)[sp].[moe](A)p.[moe]([m5C])[sp].[moe](T)}$$$$ (last 3' nucleoside missing)”, the 3 h FOB score was 0 score 0-7.

“RNA1{[moe](T)[sp].[moe](G)p.[moe](G)p.[moe]([m5C])p.[moe](A)p.d(G)[sp].d(T)[sp].d(A)[sp].d(T)[sp].d(T)[sp].d(A)[sp].d([m5C])[sp].d([m5C])[sp].d(T)[sp].d([m5C])[sp].[moe](T)p.[moe](A)p.[moe]([m5C])[sp].[moe](T)}$$$$ (last 3' nucleoside missing)” came in with a 3 h FOB score of 1 score 0-7.

Take “RNA1{[moe](T)[sp].[moe](G)p.[moe](G)p.[moe]([m5C])p.d(A)[sp].d(G)[sp].d(T)[sp].d(A)[sp].d(T)[sp].d(T)[sp].d(A)[sp].d([m5C])[sp].d([m5C])[sp].d(T)[sp].[moe]([m5C])p.[moe](T)p.[moe](A)p.[moe]([m5C])[sp].[moe](T)}$$$$ (last 3' nucleoside missing)”: the 3 h FOB score came out at 1 score 0-7.

Substance “RNA1{[moe](T)[sp].[moe](G)p.[moe](T)p.[moe](A)p.[moe](T)p.d(T)[sp].d(A)[sp].d(G)[sp].d(G)[sp].d(A)[sp].d(T)[sp].d([m5C])[sp].d([m5C])[sp].d([m5C])[sp].d(A)[sp].[moe](T)p.[moe]([m5C])p.[moe](T)[sp].[moe](A)}$$$$ (last 3' nucleoside missing)” gave a 3 h FOB score of 4 score 0-7.

Regarding “RNA1{[moe](T)[sp].[moe](G)p.[moe](T)p.[moe](A)p.d(T)[sp].d(T)[sp].d(A)[sp].d(G)[sp].d(G)[sp].d(A)[sp].d(T)[sp].d([m5C])[sp].d([m5C])[sp].d([m5C])[sp].[moe](A)p.[moe](T)p.[moe]([m5C])p.[moe](T)[sp].[moe](A)}$$$$ (last 3' nucleoside missing)”, the 3 h FOB score amounted to 3 score 0-7.

The substance “RNA1{[moe](T)[sp].[moe](G)p.[moe](T)p.[moe](G)p.[moe](A)[sp].d(T)[sp].d(T)[sp].d(T)[sp].d(T)[sp].d([m5C])[sp].d([m5C])[sp].d([m5C])[sp].d([m5C])[sp].[moe](G)p.[moe](T)p.[moe]([m5C])[sp].[moe](T)}$$$$ (last 3' nucleoside missing)” gave a 3 h FOB score of 0 score 0-7.

“RNA1{[moe](T)[sp].[moe](G)p.[moe](T)p.[moe](G)p.[moe](A)[sp].d(T)[sp].d(T)[sp].d(T)[sp].d(T)[sp].d([m5C])[sp].d([m5C])[sp].d([m5C])[sp].d([m5C])[sp].d(G)[sp].d(T)[sp].[moe]([m5C])p.[moe](T)p.[moe](T)[sp].[moe](T)}$$$$ (last 3' nucleoside missing)”: the 3 h FOB score was 5 score 0-7.

For “RNA1{[moe](T)[sp].[moe](G)p.[moe](T)p.[moe](G)p.[moe](A)[sp].d([m5C])[sp].d(T)[sp].d(A)[sp].d(T)[sp].d([m5C])[sp].d(T)[sp].d(A)[sp].d(G)[sp].[moe](G)p.[moe](A)p.[moe](T)[sp].[moe](T)}$$$$ (last 3' nucleoside missing)”, the 3 h FOB score is 3 score 0-7.

“RNA1{[moe](T)[sp].[moe](G)p.[moe](T)p.[moe](G)p.[moe](T)[sp].d(A)[sp].d(T)[sp].d(T)[sp].d(A)[sp].d(G)[sp].d(G)[sp].d(A)[sp].d(T)[sp].[moe]([m5C])p.[moe]([m5C])p.[moe]([m5C])[sp].[moe](A)}$$$$ (last 3' nucleoside missing)” came in with a 3 h FOB score of 4 score 0-7.
